“And” between values parts separate entries of the source, which are not always exact repeats. Identical values can stand only once.
Assay: Solubility study (saturated solubility of CN-Cbl, 25°C, 16 hours, UV)
Assay type: physicochemical
Description: During the solubility study the following were investigated: • cosolvents (mixtures of ethanol and propylene glycol) • in-situ salt formers • surfactants • pH effects • in-situ salt formers and cosolvents Solubility Study Method
Results of CN-Cbl Solubility in Water and Determination of Equilibrium Time

[1] = Ref. FD4068 31A, buffer Diethanolamine, hydrochloric acid, Initial pH 8.93

cyanocobalamin [CN-Cbl]
Saturated Solubility [1]: 17.5 mg/mL | pH of CN-Cbl Solution [1]: 8.80 | pH of CN-Cbl Solution (Ref. FD4068 33, 0.1 M Choline, 40% v/v propylene glycol, 10% v/v ethanol): 12.61 | Saturated Solubility (Ref. FD4068 33, Choline 0.100 M (12.12 mg/ml), 40% v/v propylene glycol, 10% v/v ethanol): 91.8 mg/ml and 0.068 M | pH of CN-Cbl Solultion (Ref. FD4068 33, Choline 0.100 M, 40% v/v propylene glycol, 10% v/v ethanol, Initial pH 12.68): 12.6 and 12.61 | pH of CN-Cbl Solution (Ref. FD4068 34, 0.1 M Triethylamine, 40% v/v propylene glycol, 10% v/v ethanol): 10.97 | Saturated Solubility (Ref. FD4068 38A, 10% v/v Ethanol, 40% v/v Propylene Glycol, 0.1 M Choline, pH adjusted with hydrochloric acid, Initial pH 8.58): 60.3 mg/mL | pH of CN-Cbl Solution (Ref. FD4068 38A, 10% v/v Ethanol, 40% v/v Propylene Glycol, 0.1 M Choline, Initial pH 8.58): 8.10 | Saturated Solubility (Ref. FD4068 38B, 10% v/v Ethanol, 40% v/v Propylene Glycol, 0.1 M Choline, pH adjusted with hydrochloric acid, Initial pH 7.85): 59.4 mg/mL | pH of CN-Cbl Solution (Ref. FD4068 38B, 10% v/v Ethanol, 40% v/v Propylene Glycol, 0.1 M Choline, Initial pH 7.85): 7.70 | Saturated Solubility (Ref. FD4068 39B, 10% v/v Ethanol, 40% v/v Propylene Glycol, 0.1 M Choline, pH adjusted with hydrochloric acid, Initial pH 8.99): 63.1 mg/mL | pH of CN-Cbl Solution (Ref. FD4068 39B, 10% v/v Ethanol, 40% v/v Propylene Glycol, 0.1 M Choline, Initial pH 8.99): 8.01 | Saturated Solubility (Ref. FD4068 39C, 10% v/v Ethanol, 40% v/v Propylene Glycol, 0.1 M Choline, pH adjusted with hydrochloric acid, Initial pH 7.43): 63 mg/mL | pH of CN-Cbl Solution (Ref. FD4068 39C, 10% v/v Ethanol, 40% v/v Propylene Glycol, 0.1 M Choline, Initial pH 7.43): 8.00 | Saturated Solubility (Ref. FD4068 42A, Choline 0.055 M (6.71 mg/ml), 40% v/v propylene glycol, 10% v/v ethanol): 80.8 mg/ml and 0.060 M | pH of CN-Cbl Solultion (Ref. FD4068 42A, Choline 0.055 M, 40% v/v propylene glycol, 10% v/v ethanol, Initial pH 12.49): 12.44 | Saturated Solubility (Ref. FD4068 42B, Choline 0.068 M (8.23 mg/ml), 40% v/v propylene glycol, 10% v/v ethanol): 82.8 mg/ml and 0.061 M | pH of CN-Cbl Solultion (Ref. FD4068 42B, Choline 0.068 M, 40% v/v propylene glycol, 10% v/v ethanol, Initial pH 12.63): 12.53 | Saturated Solubility (Ref. FD4068 43A, Choline 0.111 M (13.41 mg/ml), 40% v/v propylene glycol, 10% v/v ethanol): 92.1 mg/ml and 0.068 M | pH of CN-Cbl Solultion (Ref. FD4068 43A, Choline 0.111 M, 40% v/v propylene glycol, 10% v/v ethanol, Initial pH 12.80): 12.76 | pH of CN-Cbl Solution (Ref. FD4068 89B, 0.15 ml 2m HCl + 0.025M pH 5.6 citrate buffer, Choline 0.044 M): 6.97 | Saturated Solubility (Ref. FD4068 89B, 0.15 ml 2m HCl + 0.025M pH 5.6 citrate buffer, Choline 0.044 M (5.34 mg/ml), Initial pH 7.03): 52.6 mg/mL | pH of CN-Cbl Solution (Ref. FD4068 96, 0.2 ml 2M HCl + 0.025M pH 7.0 phosphate buffer, Choline 0.044 M): 7.96 | Saturated Solubility (Ref. FD4068 96, 0.2 ml 2M HCl + 0.025M pH 7.0 phosphate buffer, Choline 0.044 M (5.34 mg/ml), Initial pH 8.10): 54.5 mg/mL | pH of CN-Cbl Solution (Ref. FD4068 102A, 0.4m 2M HCl + 0.025M pH 6.8 phosphate buffer, Choline 0.088 M): 7.97 | Saturated Solubility (Ref. FD4068 102A, 0.4m 2M HCl + 0.025M pH 6.8 phosphate buffer, Choline 0.088 M (10.67 mg/ml), Initial pH 8.12): 58.5 mg/mL | pH of CN-Cbl Solution (Ref. FD4068 103, no buffer, pH adjusted with HCl, Choline 0.044 M): 7.21 | Saturated Solubility (Ref. FD4068 103, no buffer, pH adjusted with HCl, Choline 0.044 M (5.34 mg/ml), Initial pH 8.05): 54.6 mg/mL | Saturated Solubility (Ref. FD4068 107A, Choline chloride 0.044 M (6.14 mg/ml, Molar Ratio 1:1), 40% v/v propylene glycol, 10% v/v ethanol, pH adjusted to 8 with sodium hydroxide): 53.2 mg/mL | pH of CN-Cbl Solution (Ref. FD4068 107A, Choline chloride 0.044 M, 40% v/v propylene glycol, 10% v/v ethanol): 6.36 | Saturated Solubility (Ref. FD4068 108B, Choline chloride 0.221 M (30.86 mg/ml, Molar Ratio 1:5), 40% v/v propylene glycol, 10% v/v ethanol, pH adjusted to 8 with sodium hydroxide): 60.1 mg/mL | pH of CN-Cbl Solution (Ref. FD4068 108B, Choline chloride 0.221 M, 40% v/v propylene glycol, 10% v/v ethanol): 6.51 | Saturated Solubility (Ref. FD4068 109A, Choline chloride 0.133 M (18.57 mg/ml, Molar Ratio 1:3), 40% v/v propylene glycol, 10% v/v ethanol, pH adjusted to 8 with sodium hydroxide): 57.4 mg/mL | pH of CN-Cbl Solution (Ref. FD4068 109A, Choline chloride 0.133 M, 40% v/v propylene glycol, 10% v/v ethanol): 6.63 | Saturated Solubility (Ref. FD4068 110A, Choline chloride 0.443 M (61.81 mg/ml, Molar Ratio 1:10), 40% v/v propylene glycol, 10% v/v ethanol, pH adjusted to 8 with sodium hydroxide): 66.6 mg/mL | pH of CN-Cbl Solution (Ref. FD4068 110A, Choline chloride 0.443 M, 40% v/v propylene glycol, 10% v/v ethanol): 6.40 | Saturated Solubility (Ref. FD4068 112A, Choline chloride 0.443 M (61.81 mg/ml, 1:10), 40% v/v propylene glycol, 10% v/v ethanol, 0.025 M phosphate buffer pH 8): 66.8 mg/mL | pH of CN-Cbl Solution (Ref. FD4068 112A, Choline chloride 0.443 M, 40% v/v propylene glycol, 10% v/v ethanol, 0.025 M phosphate buffer): 7.93 | Saturated Solubility (Ref. FD4068 112B, Choline chloride 0.184 M (25.75 mg/ml, 1:5), 40% v/v propylene glycol, 10% v/v ethanol, 0.025 M phosphate buffer pH 8): 62.7 mg/mL | pH of CN-Cbl Solution (Ref. FD4068 112B, Choline chloride 0.184 M, 40% v/v propylene glycol, 10% v/v ethanol, 0.025 M phosphate buffer): 7.97 | Saturated Solubility (Water, Equilibrium Time 16 hours): 15.25 mg/mL | Saturated Solubility (Water, Equilibrium Time 24 hours): 15.47 mg/mL | Saturated Solubility (Water, Equilibrium Time 40 hours): 15.27 mg/mL | Saturated Solubility, mean (Water, mean of equilibrium times 16, 24, 40 hours): 15.33 mg/mL | pH of CN-Cbl Solution (saturated in 0.1 M Choline (12.12 mg/ml)): 12.5 and 12.49 | pH of CN-Cbl Solution (saturated in 0.1 M Diethanolamine (10.51 mg/ml)): 10.15 | pH of CN-Cbl Solution (saturated in 0.1 M L-arginine (17.42 mg/ml)): 10.22 | pH of CN-Cbl Solution (saturated in 0.1 M L-lysine (16.42 mg/ml)): 9.59 | pH of CN-Cbl Solution (saturated in 0.1 M Meglumine (19.52 mg/ml)): 10.70 | pH of CN-Cbl Solution (saturated in 0.1 M Triethanolamine (14.92 mg/ml)): 9.26 | pH of CN-Cbl Solution (saturated in 0.1 M Triethylamine (10.12 mg/ml)): 11.42
